In patent EP4663635A1, “CRYSTALLINE FORM OF SULFONAMIDE DERIVATIVE AND PREPARATION METHOD THEREFOR” (Jiangsu Hengrui Pharmaceuticals Co., Ltd., priority 2023, dated 2024):
One block for each molecule: values may come before it.

Tests used:
ZR-75-1 = assay: Anti-ZR-75-1 proliferation assay (CellTiter-Glo); assay type: cell-based; conditions: CTG assay on day 14
Excerpt: • 1. ZR-75-1 (ATCC CRL1500) • 2. 1640 medium (Gibco, 22400-089) • 3. 0.25% trypsin-EDTA (1×) (Gibco, 25200-072) • 4. Penicillin-streptomycin (Gibco, 15140-122) • 5. DPBS (1×) (Gibco, 14190-144) • 6. FBS (Gibco, 10091148) • 7. Assay plate, 96-well, black with clear bottom (Corning, 3603) • 8. 96-well non-treated round-bottom plate (JET BIOFIL, TCP-002-096) • 9. CellTiter-Glo buffer (Promega, G756B) • 10. CellTiter-Glo substrate (Promega, G755B) • 11. Automatic cell counter (Countstar, IC1000) • 12. Thermostatic incubator (Thermo, I160) • 13. PHERAstar FS (BMG labtech, PHERAstar FS)
• a. The state of cells was observed under a microscope to make sure that the cell confluence was about 90%. • b. The cell supernatant was discarded. The cells were rinsed with DPBS once, and the DPBS was removed. The cells were digested with a proper amount of trypsin and left to stand at 37 °C for 5 min. • c. The digestion was stopped with an equal volume of 1640 medium containing 10% FBS, and the cell suspension was collected and centrifuged at 300 g for 3 min. The cells were suspended in a proper amount of fresh medium. • d. The resulting cell suspension was collected and cell counting was performed. • e. The cell suspension was diluted to 5 × 10^4 cells/mL, 50 µL/well with 1640 medium containing 10% FBS. Each well contained 2500 ZR-75-1 cells. • f. […]

KAT6A = molecular target: T1, KAT6A (Homo sapiens, UniProt Q92794); assay: Enzymatic activity assay KAT6 (AlphaScreen method); assay type: biochemical; conditions: KAT enzyme 1.25 nM, Ac-CoA 1000 nM, H3 55 nM
T1 construct: purchased Chempartner (customized)
Excerpt: • 1. KAT6A (customized by Chempartner) • 2. Ovalbumin (Sigma-Aldrich, A5378-5G) • 3. 2 M Tris-HCl solution, pH 7.8, sterile (Sangon, B548140-0500) • 4. 5 M NaCl solution (Sangon, B548121-0100) • 5. EDTA (0.5 M), pH 8.0, RNase-free (Thermofisher, AM9260G) • 6. Tween-20 (Sangon, A100777-0500) • 7. DTT, 1 M (Invitrogen, P2325) • 8. Acetyl coenzyme A (Ac-CoA, CAYMAN, Cat. No. 16160) • 9. Recombinant histone H3.1 biotinylated (human) (Active Motif 31696) • 10. 384-well plate, light gray (PerkinElmer, Cat. No. 6005350) • 11. Anacardic acid (MCE, Cat. No. HY-N2020) • 12. AlphaScreen streptavidin donor beads, 5 mg (PerkinElmer, 6760002) • 13. AlphaScreen protein A acceptor beads, 5 mg (PerkinElmer, 6760137M) • 14. Acetylated-lysine antibody #9441 (CST 9441S) • 15. PHERA star microplate reader (BMG labtech)
• a. 1× assay buffer: 100 mM Tris-HCl, pH 7.8; 15 mM NaCl; 1 mM EDTA; 0.01% tween-20; 1 mM DTT; 0.01% m/v ovalbumin. • b. KAT enzyme solution: 1.25 nM (final concentration), prepared in 1× assay buffer. • c. […]
The prepared enzyme solution was added to a 384-well plate at 3 µL/well, and 3 µL of 1× assay buffer was added to each well in columns 23 and 24 (Min). […] Plate reading was performed on the microplate reader, and AlphaScreen counts were recorded. Plotting was performed using the Graphpad software, and the IC50 values of the compounds were calculated. […]

[1] = Hygroscopicity study of crystal forms (DVS); assay type: physicochemical; conditions: for 0.0%RH-80.0%RH: DVS mass change, 25 °C; for Crystal form: crystal form after DVS test
Procedure: DVS refers to dynamic vapor sorption: The analysis was performed using SMS DVS Advantage; at 25 °C, the humidity was changed as follows: 50%-95%-0%-95%-50%, in steps of 10% (5% for the last step) (specific humidity ranges are shown in corresponding patterns, and those listed here were used in most cases); the criterion was dm/dt being not greater than 0.002%.
Surface Measurement Systems intrinsic DVS was adopted. At 25 °C, the crystal forms were tested in a humidity range of 0%-95%, with increments of 10%. The criterion was that each gradient mass change dM/dT is less than 0.002%, TMAX 360 min, two cycles.

[2] = Stability influencing factor study of crystal forms; assay type: physicochemical
Procedure: Free-state samples were spread out, left to stand in open flasks, and subjected to 30-day stability tests in light exposure (4500 Lux), high temperature (40 °C and 60 °C), and high humidity (RH 75% and RH 92.5%) conditions.

[3] = Long-term/accelerated stability of crystal forms; assay type: physicochemical
Procedure: Free-state samples were sealed in aluminum foil bags and left to stand in 25 °C/60% RH and 40 °C/75% RH conditions to test their stability.

T1 sequence (Q92794 whole entry, species assumed): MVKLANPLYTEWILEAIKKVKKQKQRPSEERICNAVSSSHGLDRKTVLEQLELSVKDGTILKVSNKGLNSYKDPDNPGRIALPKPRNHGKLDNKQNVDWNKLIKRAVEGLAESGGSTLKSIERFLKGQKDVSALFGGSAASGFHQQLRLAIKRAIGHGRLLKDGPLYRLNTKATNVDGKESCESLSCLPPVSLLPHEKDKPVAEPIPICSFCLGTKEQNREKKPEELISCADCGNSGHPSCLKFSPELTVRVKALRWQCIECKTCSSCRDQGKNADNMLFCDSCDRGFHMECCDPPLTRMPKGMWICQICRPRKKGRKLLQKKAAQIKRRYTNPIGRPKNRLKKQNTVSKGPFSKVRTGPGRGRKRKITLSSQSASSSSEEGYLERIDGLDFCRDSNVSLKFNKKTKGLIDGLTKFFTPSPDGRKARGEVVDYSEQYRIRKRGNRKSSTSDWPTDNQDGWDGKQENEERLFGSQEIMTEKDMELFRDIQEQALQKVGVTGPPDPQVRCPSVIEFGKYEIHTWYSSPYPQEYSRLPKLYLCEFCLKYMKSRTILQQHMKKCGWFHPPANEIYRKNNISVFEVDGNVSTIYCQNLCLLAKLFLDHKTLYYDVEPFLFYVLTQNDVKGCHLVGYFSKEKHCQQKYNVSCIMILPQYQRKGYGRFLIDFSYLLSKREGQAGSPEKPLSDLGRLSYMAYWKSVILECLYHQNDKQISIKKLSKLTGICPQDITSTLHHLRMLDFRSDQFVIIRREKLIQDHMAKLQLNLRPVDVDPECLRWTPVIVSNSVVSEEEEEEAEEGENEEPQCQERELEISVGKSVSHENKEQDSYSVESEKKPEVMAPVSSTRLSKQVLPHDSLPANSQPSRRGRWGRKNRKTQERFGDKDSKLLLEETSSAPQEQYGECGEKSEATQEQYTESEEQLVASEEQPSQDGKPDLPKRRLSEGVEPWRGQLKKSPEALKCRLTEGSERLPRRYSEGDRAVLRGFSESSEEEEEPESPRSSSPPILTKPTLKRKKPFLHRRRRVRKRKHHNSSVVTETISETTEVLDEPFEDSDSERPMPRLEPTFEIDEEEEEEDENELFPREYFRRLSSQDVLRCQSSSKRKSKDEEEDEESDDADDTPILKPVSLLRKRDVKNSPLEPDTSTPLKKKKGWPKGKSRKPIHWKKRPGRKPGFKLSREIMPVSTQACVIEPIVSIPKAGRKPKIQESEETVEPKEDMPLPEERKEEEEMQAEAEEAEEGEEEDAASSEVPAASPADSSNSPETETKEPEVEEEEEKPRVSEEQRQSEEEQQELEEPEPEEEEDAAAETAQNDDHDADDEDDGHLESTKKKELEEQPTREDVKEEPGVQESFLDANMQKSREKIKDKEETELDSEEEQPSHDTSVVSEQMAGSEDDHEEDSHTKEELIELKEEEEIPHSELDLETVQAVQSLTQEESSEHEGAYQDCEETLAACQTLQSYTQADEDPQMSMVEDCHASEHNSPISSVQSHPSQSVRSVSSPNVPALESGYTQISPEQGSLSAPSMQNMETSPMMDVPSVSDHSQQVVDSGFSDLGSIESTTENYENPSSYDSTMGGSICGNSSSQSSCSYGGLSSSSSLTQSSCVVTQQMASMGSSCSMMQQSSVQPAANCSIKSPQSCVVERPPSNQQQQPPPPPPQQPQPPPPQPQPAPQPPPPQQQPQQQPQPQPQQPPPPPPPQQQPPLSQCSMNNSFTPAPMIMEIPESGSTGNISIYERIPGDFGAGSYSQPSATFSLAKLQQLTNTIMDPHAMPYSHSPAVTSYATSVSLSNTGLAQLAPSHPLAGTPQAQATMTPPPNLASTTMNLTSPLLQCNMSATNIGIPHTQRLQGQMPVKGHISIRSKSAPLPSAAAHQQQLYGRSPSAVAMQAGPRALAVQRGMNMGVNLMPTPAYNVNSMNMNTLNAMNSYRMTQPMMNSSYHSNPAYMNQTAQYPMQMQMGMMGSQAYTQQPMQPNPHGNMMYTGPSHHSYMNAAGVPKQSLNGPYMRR

- IC50 (KAT6A): 300 pM
SMILES: COc1cccc(OC)c1S(=O)(=O)Nc1noc2cc(Cn3cccn3)c3c(c12)OCCC3 [Compound of formula 1, N-(5-((1H-pyrazol-1-yl)methyl)-3,4-dihydro-2H-chromeno[8,7-d]isoxazol-9-yl)-2,6-dimethoxybenzenesulfonamide]
- Maximum inhibition rate/Imax% (ZR-75-1): 96%
- IC50 (ZR-75-1; Homo sapiens, ZR-75-1, 336 h): 400 pM

- 0.0%RH-80.0%RH [1]: 0.10%
- Crystal form [1]: No change
- Purity% ([2]; 40 °C, 5 days): 99.1%
- Purity% ([2]; 40 °C, 10 days): 99.1%
- Purity% ([2]; 40 °C, 30 days): 99.1%
- Purity% ([2]; 60 °C, 7 days): 99.1%
- Purity% ([2]; 60 °C, 14 days): 99.1%
- Purity% ([2]; 60 °C, 30 days): 99.1%
- Purity% ([2]; 75% RH, 7 days): 99.1%
- Purity% ([2]; 75% RH, 14 days): 99.1%
- Purity% ([2]; 75% RH, 30 days): 99.1%
- Purity% ([2]; 92.5% RH, 7 days): 99.1%
- Purity% ([2]; 92.5% RH, 14 days): 99.1%
- Purity% ([2]; 92.5% RH, 30 days): 99.1%
- Purity% ([2]; Initial, 0 days): 99.1%
- Purity% ([2]; Light exposure (4500 Lux), 7 days): 99.0%
- Purity% ([2]; Light exposure (4500 Lux), 14 days): 98.9%
- Purity% ([2]; Light exposure (4500 Lux), 30 days): 98.9%
- Crystal form ([3]; 25 °C/60%RH): No change
- Purity% ([3]; 25 °C/60%RH, 1 month): 99.1%
- Purity% ([3]; 25 °C/60%RH, 2 months): 99.1%
- Purity% ([3]; 25 °C/60%RH, 3 months): 99.1%
- Purity% ([3]; 25 °C/60%RH, 9 months): 99.1%
- Purity% ([3]; 25 °C/60%RH, 14 days): 99.1%
- Purity% ([3]; 25 °C/60%RH, Initial): 99.1%
- Crystal form ([3]; 40 °C/75%RH): No change
- Purity% ([3]; 40 °C/75%RH, 1 month): 99.1%
- Purity% ([3]; 40 °C/75%RH, 2 months): 99.1%
- Purity% ([3]; 40 °C/75%RH, 3 months): 99.1%
- Purity% ([3]; 40 °C/75%RH, 9 months): 99.1%
- Purity% ([3]; 40 °C/75%RH, 14 days): 99.1%
- Purity% ([3]; 40 °C/75%RH, Initial): 99.1%
SMILES: COc1cccc(OC)c1S(=O)(=O)Nc1noc2cc(Cn3cccn3)c3c(c12)OCCC3 [Crystal form A, N-(5-((1H-pyrazol-1-yl)methyl)-3,4-dihydro-2H-chromeno[8,7-d]isoxazol-9-yl)-2,6-dimethoxybenzenesulfonamide]

- 0.0%RH-80.0%RH [1]: 19.91%
- Crystal form [1]: No change
SMILES: COc1cccc(OC)c1S(=O)(=O)Nc1noc2cc(Cn3cccn3)c3c(c12)OCCC3 [Crystal form H, N-(5-((1H-pyrazol-1-yl)methyl)-3,4-dihydro-2H-chromeno[8,7-d]isoxazol-9-yl)-2,6-dimethoxybenzenesulfonamide]
